# Results from US11440898B2, “Isoquinoline compounds, methods for their preparation, and therapeutic uses thereof in conditions associated with the alteration of the activity of beta galactosidase” (Minoryx Therapeutics S.L., priority 2016, dated 2022).
# Biological target: T1, mutated beta-galactosidase (p.R60H canine GLB1) in GM11473 fibroblasts (Canis lupus familiaris, UniProt Q9TRY9, R60H)
# T1 construct: host or cells: GM11473 canine GM1 gangliosidosis fibroblasts
# T1 sequence (Q9TRY9 30-668 R60H): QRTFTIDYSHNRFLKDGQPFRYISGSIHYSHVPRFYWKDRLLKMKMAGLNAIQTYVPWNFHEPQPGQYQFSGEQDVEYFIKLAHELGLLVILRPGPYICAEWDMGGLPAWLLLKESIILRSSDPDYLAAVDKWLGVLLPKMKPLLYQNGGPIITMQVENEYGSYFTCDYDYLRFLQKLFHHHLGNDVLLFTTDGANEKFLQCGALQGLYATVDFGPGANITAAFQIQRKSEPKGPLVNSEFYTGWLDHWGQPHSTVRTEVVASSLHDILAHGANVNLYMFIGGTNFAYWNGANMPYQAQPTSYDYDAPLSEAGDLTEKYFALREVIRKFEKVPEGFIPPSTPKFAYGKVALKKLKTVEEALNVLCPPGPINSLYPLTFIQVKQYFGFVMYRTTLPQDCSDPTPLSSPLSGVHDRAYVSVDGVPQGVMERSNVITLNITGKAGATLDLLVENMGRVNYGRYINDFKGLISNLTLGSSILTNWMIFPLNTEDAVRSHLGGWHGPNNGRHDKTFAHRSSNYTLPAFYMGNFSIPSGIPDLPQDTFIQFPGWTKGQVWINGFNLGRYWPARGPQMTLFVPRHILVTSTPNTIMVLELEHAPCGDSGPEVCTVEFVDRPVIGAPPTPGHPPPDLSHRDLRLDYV
# Assay: Enhancement of β-galactosidase activity measured in GM1 fibroblasts (GM11473), 4-MU-β-D-galactopyranoside substrate
# Format: cell-based
# Set-up: key: Increase in comparison with non-treated of >2.5 fold is shown as A; Increase in comparison with non-treated of >1.7-2.5 fold is shown as B; Increase in comparison with non-treated of 1.2-1.7 fold is shown as C; D means that no increase compared with non-treated cells was detected in this method
# Details: increase in β-galactosidase enzyme activity vs non-treated cells, concentrations between 6 and 50 μM, 4 days incubation
row,SMILES,Activity in GM11473 fibroblasts
1,"COc1cccc(CNC(=O)c2cc(Nc3nccc4ccc(Cl)cc34)ccn2)c1 [Example 11, 4-((7-Chloroisoquinolin-1-yl)amino)-N-(3-methoxybenzyl)picolinamide]",B (Increase in comparison with non-treated of >1.7-2.5 fold is shown as B)
2,"O=S(=O)(NC1CCc2ccccc2C1)c1ccc(Nc2nccc3ccc(Cl)cc23)cc1 (stereo not drawn) [Example 77, 4-((7-Chloroisoquinolin-1-yl)amino)-N-(1,2,3,4-tetrahydronaphthalen-2-yl)benzenesulfonamide]",A (Increase in comparison with non-treated of >2.5 fold is shown as A)
3,"COc1ccc2ccnc(Nc3ccnc(C(=O)NCc4ccccc4)c3)c2c1 [Example 26, N-benzyl-4-((7-methoxyisoquinolin-1-yl)amino)picolinamide]",C (Increase in comparison with non-treated of 1.2-1.7 fold is shown as C)
4,"O=C(NCc1ccc2c(c1)OCO2)c1cc(Nc2nccc3ccc(Cl)cc23)ccn1 [Example 17, N-(benzo[d][1,3]dioxol-5-ylmethyl)-4-((7-chloroisoquinolin-1-yl)amino)picolinamide]",B (Increase in comparison with non-treated of >1.7-2.5 fold is shown as B)
5,"COc1ccc2ccnc(Nc3ccc(C(=O)NCC4CCc5ccccc5C4)nc3)c2c1 (stereo not drawn) [Example 47, 5-((7-Methoxyisoquinolin-1-yl)amino)-N-((1,2,3,4-tetrahydronaphthalen-2-yl)methyl)picolinamide]",B (Increase in comparison with non-treated of >1.7-2.5 fold is shown as B)
6,"O=C(NCc1ccc2c(c1)CCCO2)c1ccc(Nc2nccc3ccc(Cl)cc23)cn1 [Example 39, 5-((7-Chloroisoquinolin-1-yl)amino)-N-(chroman-6-ylmethyl)picolinamide]",B (Increase in comparison with non-treated of >1.7-2.5 fold is shown as B)
7,"O=C(NCc1ccc2c(c1)CCCO2)c1cc(Nc2nccc3ccc(Cl)cc23)ccn1 [Example 19, 4-((7-Chloroisoquinolin-1-yl)amino)-N-(chroman-6-ylmethyl)picolinamide]",C (Increase in comparison with non-treated of 1.2-1.7 fold is shown as C)
8,"COc1ccc(CNC(=O)c2ccc(Nc3nccc4ccc(Cl)cc34)cn2)cc1OC [Example 32, 5-((7-Chloroisoquinolin-1-yl)amino)-N-(3,4-dimethoxybenzyl)picolinamide]",C (Increase in comparison with non-treated of 1.2-1.7 fold is shown as C)
9,"O=S(=O)(NCc1ccc2nsnc2c1)c1cccc(Nc2nccc3ccc(Cl)cc23)c1 [Example 74, N-(benzo[c][1,2,5]thiadiazol-5-ylmethyl)-3-((7-chloroisoquinolin-1-yl)amino)benzenesulfonamide]",D
10,"O=C(NCc1ccc2c(c1)OCO2)c1ccc(Nc2nccc3ccc(Cl)cc23)cn1 [Example 37, N-(benzo[d][1,3]dioxol-5-ylmethyl)-5-((7-chloroisoquinolin-1-yl)amino)picolinamide]",D
11,"O=C(NCc1ccccc1)c1ccc(Nc2nccc3ccc(Cl)cc23)nc1 [Example 55, N-benzyl-6-((7-chloroisoquinolin-1-yl)amino)nicotinamide]",C (Increase in comparison with non-treated of 1.2-1.7 fold is shown as C)
12,"O=S(=O)(NCc1ccc2nsnc2c1)c1ccc(Nc2nccc3ccc(Cl)cc23)cc1 [Example 76, N-(benzo[c][1,2,5]thiadiazol-5-ylmethyl)-4-((7-chloroisoquinolin-1-yl)amino)benzenesulfonamide]",C (Increase in comparison with non-treated of 1.2-1.7 fold is shown as C)
13,"O=S(=O)(NCC(c1ccccn1)N1CCOCC1)c1ccc(Nc2nccc3ccc(Cl)cc23)cc1 (stereo not drawn) [Example 72, 4-((7-Chloroisoquinolin-1-yl)amino)-N-(2-morpholino-2-(pyridin-2-yl)ethyl)benzenesulfonamide]",D
14,"COc1ccc2ccnc(Nc3ccnc(C(=O)NCc4ccc5c(c4)OCCO5)c3)c2c1 [Example 25, N-((2,3-dihydrobenzo[b][1,4]dioxin-6-yl)methyl)-4-((7-methoxyisoquinolin-1-yl)amino)picolinamide]",C (Increase in comparison with non-treated of 1.2-1.7 fold is shown as C)
15,"N#Cc1ccc2ccnc(Nc3ccc(C(=O)NCc4ccc5nsnc5c4)nc3)c2c1 [Example 50, N-(benzo[c][1,2,5]thiadiazol-5-ylmethyl)-5-((7-cyanoisoquinolin-1-yl)amino)picolinamide]",C (Increase in comparison with non-treated of 1.2-1.7 fold is shown as C)
